Measurements reported in PMC7684578, “Isopedopeptins A–H: Cationic Cyclic Lipodepsipeptides from Pedobacter cryoconitis UP508 Targeting WHO Top-Priority Carbapenem-Resistant Bacteria” (ACS Chemical Biology, 2020).
Read-outs that look alike come from different tables or passages of the source. Starred links: 1 amine or outer side, 2 acyl side, 3 side chain; linkers in the order of their positions; H or OH if unused. Positions of bridges follow the written chain, without caps; N, C: chain ends. Non-standard residues stand in square brackets, D forms with d. Residues, ends and D or L forms follow the SMILES beside them. X4 = CC(C)CCC=CCCC[C@H](CC(=O)[*:1])O[*:2]; X6 = CC(C)CCCCC=CC[C@H](CC(=O)[*:1])O[*:2]; X5 = CC(C)CCCCCCC[C@H](CC(=O)[*:1])O[*:2]; X3 = CC(C)CCCCC[C@H](CC(=O)[*:1])O[*:2]; X7 = CCCCCCC=CC[C@H](CC(=O)[*:1])O[*:2]; X2 = CCCCCCC[C@H](CC(=O)[*:1])O[*:2]; Val(3-OH) = CC(C)(O)[C@H](N)C(=O)O; X1 = C/C=C(/N[*:1])C(=O)[*:2]; Dab = NCC[C@H](N)C(=O)O; Dap = NC[C@H](N)C(=O)O

Tested on: HepG2 cells
Experiment: In vitro cytotoxicity, fluorometric microculture cytotoxicity assay
Assay type: cell-based
Details: Homo sapiens, HepG2 liver, 72 h
Experimental: 10^8 CFU/mL) with turbidity assessed using a Sensititre Nephelometer (Trek Diagnostics Systems Ltd, UK). 50 µL of this bacterial suspension was transferred to 10 mL of MHII broth to give a final bacterial concentration ≅ 5 × 10^5 CFU/mL (acceptable range 3 – 7 × 10^5 CFU/mL). 50 µL of bacterial suspension was pipetted into each well (except the medium control well, where 50 µL MHII was pipetted). Final volume in each well was 100 µL. Plates were covered and incubated without shaking for 18-20 h at 35 °C ± 2 °C. MIC was read visually, as complete inhibition of growth by the unaided eye, using the medium-only wells as the control. Each compound was assayed at least in duplicate.
Additionally, the MIC for compound 2 against clinical carbapenem-resistant strains of A. baumannii […]
determined at the Public Health Agency of Sweden (according to EUCAST recommendations).
In vitro Cytotoxicity Determination. In vitro cytotoxicity was determined by a fluorometric microculture cytotoxicity assay,7 based on hydrolysis of fluorescein diacetate to fluorescein by cells with intact plasma membranes. In short, HepG2 cells (hepatocellular carcinoma cells, ATCC), in Eagle's Minimum Essential Medium (ATCC) supplemented with 10 % fetal bovine serum, penicillin/streptomycin (100 U/100 µg/mL) and 2 mM L-glutamine, were seeded in 384-well assay plates at a density of 1000 cells/well. The cells were incubated over night at 37°C and compounds in 10 mM DMSO were added, to obtain final concentrations 64 µM – 0.25 µM in two-fold dilutions.
After incubation for 72 h at 37°C, the cells were pelleted and washed. Fluorescein diacetate was added (1 µL, 0.5 mg/mL) and the fluorescence [485 nm(exc)/530 nm(em.)] was measured after 50 min at 37°C. Bortezomib (2 µM) was used as positive control and dose response testing of doxorubicin (top concentration 2 µM) was performed repeatedly to follow assay performance over time. Cytotoxicity was assessed after 72 h with cell survival presented as survival index (SI, %) defined as fluorescence in test wells in percent of control cultures with blank values subtracted.
Criteria for a successful assay include a signal-to-noise ratio in control cultures >10, CV <30% and a 7 Lindhagen, E., Nygren, P., and Larsson, R. (2008) The fluorometric microculture cytotoxicity assay. Nat. […]
positive control (Bortezomib) SI of <5%. The half maximal inhibitory concentration (IC50) was determined from log concentration-effect curves using non-linear regression analysis.
Frequency of resistance (FoR). For the determination of the FoR, the MIC of compound 2 was first evaluated on solid MH-agar medium prepared in 35 mm diameter plates. Each plate contained 4 mL agar with the appropriate amount of compound. Bacterial cultures were grown and prepared as described for the MIC assay. 13 µL of bacterial culture diluted to 0.5 MacFarland was inoculated into 1 mL 0.9% NaCl resulting in ~2 × 10^6 CFU/mL. 5 µL of this bacterial suspension was spotted onto the surface of each agar plate (~10^4 CFU/spot). Plates were sealed and incubated at 37°C for 18–20 hours. Agar MIC was recorded according to CLSI guidelines as the lowest concentration of […]
faint haze caused by the inoculum. Then 9 cm plates were prepared with 25 mL MHII agar medium containing 4 × or 8 × solid MIC concentrations of test compounds and seeded with 100 µL of a bacterial preparation, concentrated by centrifugation from overnight cultures and resuspended in 0.9% NaCl, corresponding to 108 CFU and 109 CFU per plate, and spread on the agar using 4–5 glass beads of 4 mm diameter. Since CFU were evaluated using the McFarland turbidity standard, the exact CFU number plated was evaluated by plating of serial dilutions of each inoculum preparation on MHII agar plates. Plates were incubated at 37°C and colonies were counted at 24 h and 48 h post-plating. The frequencies of resistance were then calculated by counting the number of validated resistant colonies growing on antibiotic preparations divided by the evaluated number of CFU in the inoculum. […]

C/C=C1/NC(=O)[C@H](CCN)NC(=O)[C@H](CC(C)C)NC(=O)[C@H](CN)NC(=O)C[C@@H](CCCC=CCCC(C)C)OC(=O)[C@H](CC(=O)O)NC(=O)[C@H](C(C)C)NC(=O)[C@@H](Cc2ccccc2)NC(=O)[C@H](CN)NC(=O)[C@H]([C@@H](C)O)NC1=O [Compound 7, Isopedopeptin G] ([Dap]L[Dab][X1]T[Dap][dF]VD; linker N-C via X4)
IC50 (read-out: IC50(μM) HepG2): 11 µM | IC50 (read-out: IC50(μg/mL) HepG2): 13 µg/mL

C/C=C1/NC(=O)[C@H](CCN)NC(=O)[C@H](CC(C)C)NC(=O)[C@H](CN)NC(=O)C[C@@H](CCCCCC(C)C)OC(=O)[C@H](CC(=O)O)NC(=O)[C@H](C(C)(C)O)NC(=O)[C@@H](Cc2ccccc2)NC(=O)[C@H](CN)NC(=O)[C@H]([C@@H](C)O)NC1=O [Compound 1, cyclo(3-hydroxy-9-methyldecanoyl-DAPA1-Leu-DABA-ABA-Thr-DAPA2-Phe-OHVal-Asp)] ([Dap]L[Dab][X1]T[Dap][dF][Val(3-OH)]D; linker N-C via X3)
IC50 (read-out: IC50(μM) HepG2): 29 µM | IC50 (read-out: IC50(μg/mL) HepG2): 33 µg/mL

C/C=C1/NC(=O)[C@H](CCN)NC(=O)[C@H](CC(C)C)NC(=O)[C@H](CN)NC(=O)C[C@@H](CCCCCCC)OC(=O)[C@H](CC(=O)O)NC(=O)[C@H](C(C)C)NC(=O)[C@@H](Cc2ccccc2)NC(=O)[C@H](CN)NC(=O)[C@H]([C@@H](C)O)NC1=O [Compound 4, isopedopeptin D] ([Dap]L[Dab][X1]T[Dap][dF]VD; linker N-C via X2)
IC50 (read-out: IC50(μM) HepG2): 9 µM | IC50 (read-out: IC50(μg/mL) HepG2): 10 µg/mL

C/C=C1/NC(=O)[C@H](CCN)NC(=O)[C@H](CC(C)C)NC(=O)[C@H](CN)NC(=O)C[C@@H](CCCCCC(C)C)OC(=O)[C@H](CC(=O)O)NC(=O)[C@H](C(C)C)NC(=O)[C@@H](Cc2ccccc2)NC(=O)[C@H](CN)NC(=O)[C@H]([C@@H](C)O)NC1=O [Compound 5, Isopedopeptin E] ([Dap]L[Dab][X1]T[Dap][dF]VD; linker N-C via X3)
IC50 (read-out: IC50(μM) HepG2): 13 µM | IC50 (read-out: IC50(μg/mL) HepG2): 14 µg/mL

C/C=C1/NC(=O)[C@H](CCN)NC(=O)[C@H](CC(C)C)NC(=O)[C@H](CN)NC(=O)C[C@@H](CCCCCCCC(C)C)OC(=O)[C@H](CC(=O)O)NC(=O)[C@H](C(C)(C)O)NC(=O)[C@@H](Cc2ccccc2)NC(=O)[C@H](CN)NC(=O)[C@H]([C@@H](C)O)NC1=O [Compound 6, Isopedopeptin F] ([Dap]L[Dab][X1]T[Dap][dF][Val(3-OH)]D; linker N-C via X5)
IC50 (read-out: IC50(μM) HepG2): 9 µM | IC50 (read-out: IC50(μg/mL) HepG2): 10 µg/mL

C/C=C1/NC(=O)[C@H](CCN)NC(=O)[C@H](CC(C)C)NC(=O)[C@H](CN)NC(=O)C[C@@H](CC=CCCCCCC)OC(=O)[C@H](CC(=O)O)NC(=O)[C@H](C(C)(C)O)NC(=O)[C@@H](Cc2ccccc2)NC(=O)[C@H](CN)NC(=O)[C@H]([C@@H](C)O)NC1=O [Compound 3, isopedopeptin C] ([Dap]L[Dab][X1]T[Dap][dF][Val(3-OH)]D; linker N-C via X7)
IC50 (read-out: IC50(μM) HepG2): 29 µM | IC50 (read-out: IC50(μg/mL) HepG2): 33 µg/mL

C/C=C1/NC(=O)[C@H](CCN)NC(=O)[C@H](CC(C)C)NC(=O)[C@H](CN)NC(=O)C[C@@H](CC=CCCCCC(C)C)OC(=O)[C@H](CC(=O)O)NC(=O)[C@H](C(C)C)NC(=O)[C@@H](Cc2ccccc2)NC(=O)[C@H](CN)NC(=O)[C@H]([C@@H](C)O)NC1=O [Compound 8, Isopedopeptin H] ([Dap]L[Dab][X1]T[Dap][dF]VD; linker N-C via X6)
IC50 (read-out: IC50(μM) HepG2): 14 µM | IC50 (read-out: IC50(μg/mL) HepG2): 16 µg/mL

C/C=C1/NC(=O)[C@H](CCN)NC(=O)[C@H](CC(C)C)NC(=O)[C@H](CN)NC(=O)C[C@@H](CCCCCCC)OC(=O)[C@H](CC(=O)O)NC(=O)[C@H](C(C)(C)O)NC(=O)[C@@H](Cc2ccccc2)NC(=O)[C@H](CN)NC(=O)[C@H]([C@@H](C)O)NC1=O [Compound 2, isopedopeptin B] ([Dap]L[Dab][X1]T[Dap][dF][Val(3-OH)]D; linker N-C via X2)
IC50 (read-out: IC50(μM) HepG2): 50 µM | IC50 (read-out: IC50(μg/mL) HepG2): 56 µg/mL
